Data on four compounds can be found in PMC9636949 (Proceedings of the National Academy of Sciences of the …, 2022).

Assay [1] deals with T1, human α7-AChR (Homo sapiens, UniProt P36544). Conditions: pH 7.4; cited from earlier work.
Assay [2] concerns the target T1, human α7-AChR. The assay is classed as binding. The conditions noted are these: read-out: Unlabeled-ligand half-competition concentration; pH 7.4.

The structures appear in SMILES notation.

T1 sequence (P36544 23-502): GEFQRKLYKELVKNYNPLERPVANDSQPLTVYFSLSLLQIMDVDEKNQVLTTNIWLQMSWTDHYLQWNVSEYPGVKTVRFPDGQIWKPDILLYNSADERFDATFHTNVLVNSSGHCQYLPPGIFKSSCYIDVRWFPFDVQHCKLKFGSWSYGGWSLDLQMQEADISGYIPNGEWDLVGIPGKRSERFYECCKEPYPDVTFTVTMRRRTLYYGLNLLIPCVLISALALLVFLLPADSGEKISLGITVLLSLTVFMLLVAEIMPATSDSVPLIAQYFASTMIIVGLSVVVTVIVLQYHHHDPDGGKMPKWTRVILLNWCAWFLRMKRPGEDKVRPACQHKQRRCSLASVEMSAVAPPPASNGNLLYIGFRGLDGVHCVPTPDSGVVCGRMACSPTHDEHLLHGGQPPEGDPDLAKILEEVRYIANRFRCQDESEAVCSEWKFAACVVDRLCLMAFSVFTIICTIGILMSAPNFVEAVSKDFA

Consider `C[N+](C)(C)CCO` [Choline, choline], for which, in assay [1], the “Unlabeled-ligand nH (Hill coefficient)” value was 1.28 ± 0.08.
As for `CC[N+](C)(C)C` [ETMA], the IC50 in assay [2] stood at 15.6 ± 1.09 µM.
Take `CN1CCC[C@H]1c1cccnc1` [Nicotine, nicotine]: the “Unlabeled-ligand nH (Hill coefficient)” value in assay [1] was 1.41 ± 0.06.
On to `C[N+](C)(C)C` [TMA, tetramethylammonium], for which the IC50 in assay [2] was determined as 11.4 ± 1.33 µM.
